This note sets out measurements from patent US20140193383A1, “USE OF LACTOBACILLUS KEFIRANOFACIENS AS A PROBIOTIC AND A SYNBIOTIC” (Technologies Biolactis Inc., priority 2005, published 2014).

The subject of experiment [1] is poloxamer 407 induced hyperlipidemia. Kind of experiment: Poloxamer 407 rat model of hyperlipidemia (strains). Format: in vivo, Wistar rats. Here is the method: The different bacterial strains were tested for their capacity to regulate blood lipid levels in a rat model of hyperlipidemia. […] Wistar rats injected i.p. with poloxamer 407 rapidly develop severe but transient hyperlipidemia. […] The hypo-lipidemic effect of L. kefiranofaciens strains is evaluated in groups of rats pre-treated orally for 7 days before injection of poloxamer. Blood lipids were measured before injection and at 24 and 72 hours following induction of hyperlipidemia. Plasma levels of triglycerides, and cholesterol (LDL) were evaluated.
Group 1: 4 rats, gavage saline Group 2: 4 rats, gavage niacin (100 mg/kg) Group 3: 4 rats, gavage R2C2 (1×10^8 cfu/ml) Group 4: 4 rats, gavage INIX (1×10^8 cfu/ml) Group 5: 4 rats, gavage BioSP (1×10^8 cfu/ml) Group 6: 4 rats, gavage K2 (1×10^8 cfu/ml)

The test system is the same in experiment [2]. Kind of experiment: Anti-triglyceridemia potential, poloxamer 407 rats (Example 6). Format: in vivo, female Wistar rats. On the procedure: For the experiment, female Wistar rats, 7 weeks old, weighing 125-150 g. were purchased from Charles River Canada. Rats were randomized into 4 different groups, each composed of at least 6 animals. […] They were housed under specific pathogen-free conditions and maintained in a […] light/dark cycle. All animals consumed standard diet and received water ad libitum. MPM was in a lyophilized form and prepared daily by adding 80% of water and mixed to create back a yoghurt-like product. The bacterial strain Lactobacillus […] was routinely cultured in MRS broth (BD Biosciences, Mississauga, ON, Canada) at 37° C. for a period of 24 h. Bacteria were then pelleted by centrifugation at 4000 rpm for 8 minutes and re-suspended at a concentration of 10^9 cells/mL in sterile PBS (Invitrogen). Niacin was dissolved in water in order for the rats to receive a dose of 100 mg of treatment per kg. […] The poloxamer 407 solution for intraperitoneal (i.p.) injection was prepared by combining the agent with sterile water and refrigerating overnight to facilitate dissolution of the polymer by the cold method of incorporation. […] Approximately 1 mL of blood was collected from the jugular vein in 3 mL syringes and immediately transferred in lithium-heparinized plastic tubes (Sarstedt, Montreal, QC, Canada). Tubes were lightly shaken for 10 seconds, and then centrifuged to allow separation of the plasma. Plasma samples were collected in clean 1.5 mL eppendorf and immediately frozen at -80° C. until the time of analysis. For blood collection, each animal was anesthetized using isoflurane (AErrane, Baxter Corporation, Deerfield, Ill., USA). […] Animals were sacrificed after the last blood collection by the CO2 asphyxia method. […] Samples from all experimental groups were analyzed for total cholesterol and triglycerides. All analysis were performed in an independent laboratory (Laboratoire medical Biron, 4105-[…] Blvd, Brossard, Québec, Canada, J4Y 2P4), ISO 9002 certified, offering a reliable plasma lipids quantification service.

Experiment [3] shares this test system. Kind of experiment: Model of hyperlipidemia, poloxamer 407 (Example 8a). Format: in vivo, Wistar rats. On the procedure: The whey fermented with L. kefiranofaciens R2C2 was tested for their capacity to regulate blood lipid levels in a rat model of hyperlipidemia. […] Wistar rats injected i.p. with poloxamer 407 rapidly develop severe but transient hyperlipidemia. […] The hypo-lipidemic effect of L. kefiranofaciens strains is evaluated in groups of rats pre-treated orally for 7 days before injection of poloxamer. Blood lipids were measured before injection and at 24 and 72 hours following induction of hyperlipidemia. Plasma levels of triglycerides, cholesterol, HDL, LDL and glucose were evaluated.
Group 1: 4 rats, gavage saline Group 2: 4 rats, gavage niacin (100 mg/kg) Group 3: 4 rats, gavage whey fermented with L. kefiranofaciens R2C2 (1 ml per gavage)

Experiment [4] deals with diet-induced hyperlipidemia and weight gain. Kind of experiment: Model of hypertriglyceridemia and obesity (fructose 10% in drinking water). In kind it is in vivo, Wistar rats. On the procedure:
The whey fermented with L. kefiranofaciens […] was tested for its capacity to regulate weight gain and blood lipid levels in a diet-induced rat model of hyperlipidemia. This protocol allows a comparison to niacin (vitB3) in regulating diet-induced hyperlipidemia in rats. […] The hypo-lipidemic effects of the whey fermented with L. kefiranofaciens […] during the fructose treatment period were evaluated. Blood samples are collected before the start of fructose treatment, and once a week for 4 weeks during the induction of hyperlipidemia. Serum levels of triglycerides were measured.

Experiment [5] has as its system visceral fat in Spontaneous Hypertensive Rat. Kind of experiment: Weight and fat management, SHR model (visceral fat). Format: in vivo, SHR rats. Conditions: once a day for 56 days, saline 100. On the procedure:
The whey fermented with L. kefiranofaciens R2C2 was tested for its capacity to regulate fat distribution as well as weight gain in the Spontaneous Hypertensive Rat model and in ovariectomized rats. The SHR model was used as previously described but used to monitor the levels of visceral fat accumulating in the belly following. The animals were fed with 1 ml of whey fermented with L. kefiranofaciens R2C2 (20% solid) once a day for 56 days (P.O. q1×56)
Group 1: 12 rats, gavage saline Group 2: 12 rats, gavage niacine (100 mg/kg) Group 3: 12 rats, gavage whey fermented with L. kefiranofaciens R2C2 (1 ml per gavage)

Where [6] appears, read: plasma, before poloxamer, saline 1.55.

With `O=C(O)c1cccnc1` [Niacin, niacin], the “Plasma triglycerides after pre-treatment of 7 days” value in experiment [1] (before poloxamer) is “plasma triglycerides were reduced”; in experiment [3] (rat, in vivo) it was “plasma triglycerides were reduced”. Moreover, the “Triglycerides (mmol/L) after 7 days of treatment” value in experiment [1] (setting [6]) and in experiment [3] (setting [6]) was 0.97 mmol/L in each case. For the same compound, the “Triglycerides (mmol/L) 72 h post-induction of hyperlipidemia” value in experiment [1] (plasma, saline 95.42) worked out at 69.96 mmol/L; in experiment [3] (plasma, saline 97.72) it was 69.96 mmol/L. In addition, the “Plasma triglycerides 72 hours after induction of hyperlipidemia” value in experiment [1] (rat, in vivo) is recorded as “most important reduction”. The “CH levels (72 hours post induction of hyperlipidemia) (%)” value in experiment [2] (cholesterol, Controls 100) was found to be 33%. In addition, the “Triglyceride levels (7-day treatment)” value in experiment [2] (plasma, before poloxamer 407, Controls 1.83) is 1.00 mmol/L. In addition, in experiment [2] (plasma, Controls 95.42), the “Triglyceride levels (72 hours post induction of hyperlipidemia)” value is recorded as 66.96 mmol/L. Moreover, the “Levels of triglyceride, % relative to saline on day 0” value in experiment [4] (Day 0, saline 100) is given as 100%. For the same compound, the “Levels of triglyceride, % over saline group” value worked out at 150% in experiment [4] (Day 7 of fructose, saline 260) and 160% in experiment [4] (Day 21 of fructose, saline 270). Further, in experiment [5], the “% of animals with visceral fat” value came to 70%.
